This passage reports Observed efficacy results from patent US20180235221A1 (priority 2015, published 2018).

In this experiment the test system is Qol resistant Pyricularia oryzae isolate (1328). It is filed as cell-based. The settings on record: single active compound, MTP, 405 nm, 7 days after inoculation.

The structures appear in SMILES notation. Where two headings read alike, the source gives them in different places.

`Cn1nnn(-c2cccc(F)c2COc2ccn(-c3ccc(Cl)cc3)n2)c1=O` [II-4, 1-[2-[[1-(4-chlorophenyl)pyrazol-3-yl]oxymethyl]-3-fluoro-phenyl]-4-methyl-tetrazol-5-one] returned an Observed efficacy (0.063 ppm) of 1%.

As to `CNC(=O)C(=N/OC)/C(C)=C\COc1ccn(-c2ccc(Cl)cc2Cl)n1` [Compound I-3, (Z,2E)-5-[1-(2,4-dichlorophenyl)pyrazol-3-yl]oxy-2-methoxyimino-N,3-dimethyl-pent-3-en-amide], the Observed efficacy reads like this: (0.063 ppm) 2%; (0.25 ppm) 54%.

Regarding `CC(=NOCc1c(C)cccc1-n1nnn(C)c1=O)c1cccc(C(F)(F)F)c1` [II-11, -methyl-4-[3-methyl-2-[[1-[3-(trifluoromethyl)-phenyl]-ethylideneamino]oxymethyl]phenyl]tetrazol-5-one], the Observed efficacy (0.063 ppm) turned out to be 2%.

In turn, `Cn1nnn(-c2cccc(Cl)c2COc2ccn(-c3ccc(Cl)cc3)n2)c1=O` [II-1, 1-[3-chloro-2[[1-(4-chlorophenyl)-1H-pyrazol-3-yl]oxymethyl]phenyl]-4-methyl-tetrazol-5-one] registered an Observed efficacy (0.016 ppm) of 0%.

Regarding `Cn1nnn(-c2cccc(Br)c2COc2ccn(-c3ccc(Cl)cc3)n2)c1=O` [II-2, 1-[3-bromo-2-[[1-(4-chlorophenyl)pyrazol-3-yl]oxymethyl]phenyl]-4-methyl-tetrazol-5-one], the Observed efficacy (0.016 ppm) was determined as 2%.

In the case of `CNC(=O)C(=N/OC)/C(C)=C\COc1ccn(-c2ccc(Cl)cc2)n1` [Compound I-1, (Z,2E)-5-[1-(4-chlorophenyl)pyrazol-3-yl]oxy-2-methoxyimino-N,3-dimethyl-pent-3-enamide], the Observed efficacy by setting is: (0.063 ppm) 1%; (0.25 ppm) 65%.

`Cc1cccc(-n2nnn(C)c2=O)c1COc1ccn(-c2ccc(Cl)cc2)n1` [II-3, 1-[2-[[1-(4-chlorophenyl)pyrazol-3-yl]oxymethyl]-3-methyl-phenyl]-4-methyl-tetrazol-5-one] yielded an Observed efficacy (0.016 ppm) of 44%.

The compound `Cn1nnn(-c2cccc(F)c2COc2ccn(-c3ccc(Cl)cc3Cl)n2)c1=O` [II-5, 1-[2-[[1-(2,4-dichlorophenyl)pyrazol-3-yl]oxymethyl]-3-fluoro-phenyl]-4-methyl-tetrazol-5-one] gave an Observed efficacy (0.25 ppm) of 44%.
